Among the data in ChEMBL document CHEMBL1148854, “Synthesis and biological evaluation of unprecedented classes of spiro-beta-lactams and azido-beta-lactams as acyl-CoA:cholesterol acyltransferase inhibitors” (Bioorg Med Chem Lett, 2007) are inhibition and IC50 values, retold here.

Experiment [1] deals with T1, Acyl-CoA:cholesterol acyltransferase (Oryctolagus cuniculus) (UniProt Q95214).
T1 sequence (whole entry): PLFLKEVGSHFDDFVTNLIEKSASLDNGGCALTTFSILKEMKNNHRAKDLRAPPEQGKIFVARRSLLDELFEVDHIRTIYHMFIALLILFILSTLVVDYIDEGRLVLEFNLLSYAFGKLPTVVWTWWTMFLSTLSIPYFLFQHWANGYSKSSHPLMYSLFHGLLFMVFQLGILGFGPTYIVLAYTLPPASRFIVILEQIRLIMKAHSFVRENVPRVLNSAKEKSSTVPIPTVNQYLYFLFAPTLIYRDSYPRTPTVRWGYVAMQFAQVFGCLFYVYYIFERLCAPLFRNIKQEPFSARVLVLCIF
Kind of experiment: Inhibition of ACAT in Albino rabbit intestinal mucosa at 10 uM.

Experiment [2] deals with T2, Acyl-CoA:cholesterol acyltransferase (Oryctolagus cuniculus, UniProt Q95214).
T2 sequence (Q95214 whole entry): T1 sequence (whole entry)
Kind of experiment: Inhibition of ACAT in Albino rabbit intestinal mucosa.

As a reminder, the inhibition is how much of the control response was suppressed. High values mean a response far below the control, low ones a response near the control. In turn, `CC[C@@H](N=[N+]=[N-])[C@@H](O)[C@]1(Br)C(=O)N([C@@H](C)c2ccccc2)[C@H]1c1ccccc1` yielded an inhibition in experiment [1] of 65%.

As for `CC[C@H](N=[N+]=[N-])[C@H](O)[C@]1(Br)C(=O)N([C@@H](C)c2ccccc2)[C@H]1c1ccccc1`, in experiment [1], the inhibition stood at 60%.

By IC50 is commonly meant the point on the concentration scale where inhibition reaches its midpoint. Lower therefore signals inhibition by little substance. The molecule `CC[C@H](C)C(=O)O[C@H]1C[C@@H](C)C=C2C=C[C@H](C)[C@H](CC[C@@H]3C[C@@H](O)CC(=O)O3)[C@H]21` [LOVASTATIN] yielded an IC50 in experiment [2] of 16.8 µM.
